Data as given in patent US20150212068A1, “Cholyl-L-Lysyl-Fluorescein Assay” (Novassay SA, priority 2012, published 2015).

Key:
[1] = Stability of CLF-spiked serum samples after 12 day storage at 2-8° C., CLF ELISA; format: in vitro ADME, human
Protocol: (§1) These conditions were used for all assays described in Phase 2a (above) and Phase 2b (below). See Appendix B and C for buffer and conjugate formulations respectively: • Add 25 μl/well of sample or standard (0-1000 ng/ml CLF in Buffer #24) to the wells of a streptavidin-coated microtitre plate (NovAssay, F2SAC). • Add 100 μl/well of fluorescein-biotin (Sigma B9431) at 20 ng/ml in Buffer #24+0.2% w/v ANS (Sigma 10417). • Add 100 μl/well of anti-fluorescein HRP (NovAssay, DV047/17-3) at 100 ng/ml in Buffer #24. • Incubate the plate for 30 minutes at room temperature. • Wash the plate 3 times with 800 μl/well Buffer #29 and tap the plate dry. • Add 100 μl/well of SureBlue Reserve TMB Substrate (KPL) and incubate the plate for 10 minutes at room temperature. • Stop the substrate reaction by adding 100 μl/well of 1M HCl and read the absorbance at 450 nm wavelength (ThermoFisher Scientific, Multiskan FC).
Sample drift was assessed by using two sera spiked with CLF to 4 levels (62.5, 125, 250 and 500 ng/ml). Each of the samples were added to streptavidin coated wells (in duplicate) soon after the addition of the standards (time 0, in columns 5&6)); after 5 minutes the samples were added to columns 7&8; “5 minute” time point” 5 minutes later in columns 9&10 (“10 minute time point” and 5 minutes later in columns 11&12 (“15 minute time point”). The samples used were prepared 12 days prior to the experiment and were kept at 2-8° C. In addition, some other serum samples that were spiked with CLF at the same time (12 days prior to the assay) were also measured in order to determine the stability of CLF (note: The data obtained are the results of 2 variables (instability of CLF and the recovery) and thus represent a “worst case scenario”.
The level of instability (after 12 day storage at 2-8° C.) was calculated by comparing the results obtained with the expected results.

[2] = Effect of light exposure on CLF-spiked serum, 48 hrs at room temperature, CLF ELISA; format: physicochemical, human; details: for % difference (light from dark) / observed Light / observed dark: serum pool; for % difference (light from dark) / observed dark: 48 hrs at RT; for observed Light: 48 hrs at RT near light source; for observed dark: covered with aluminium foil
Protocol: as §1
For the study of the effect of light, 3 pools of serum were spiked with CLF at 31.25, 125 and 500 ng/ml. One aliquot of each pool was put near a light source (fluorescent bulb 58 watts, at a distance of 85 cm). The “dark” sample was covered with aluminium foil. The samples were at RT (˜18-22° C.). Storage time was 48 hrs.

[3] = Storage stability of CLF in human plasma at −70° C. over 4 weeks (Test 4), HPLC-MS/MS; format: in vitro ADME; details: for CLF remaining / CLF concentration: (D) storage in plasma at −70° C. per title (section head prints 37° C.); for CLF remaining: vs To; for CLF concentration: 100 ng/ml, mean ± SEM (n = 2)
Protocol: A working solution of CLF was prepared at 10 μg/ml by diluting the compound in methanol (100%).
At To and 4 weeks, 72 hours and 24 hours before To, 4 μl of the working solution of CLF were added to 400 μl of human plasma. The final concentration of CLF was of 100 ng/ml. Samples were divided in 2 equal fractions of 200 μl and stored at −70° C. until further analysis.
An internal standard (IS), 5-([4,6-Dichlorotriazin-2-yl]amino)fluorescein hydrochloride, was added to each plasma sample (calibrators, QC, zero and test samples) in order to monitor the extraction. Thus, a stock solution of IS at 100 μg/ml in acetonitrile was 50-fold diluted in acetonitrile in order to obtain a final concentration of 2 μg/ml. Then, 200 μl of this solution were added to each plasma sample in order to precipitate the proteins. Samples were vortexed/mixed and centrifuged 5 min at 20,000 g (4° C.). After centrifugation, the clear supernatant (around 250 μl) was transferred into 1.2 ml HPLC glass vials and sealed. Samples were placed into the refrigerated autosampler and 20 μl were injected into the HPLC-MS/MS system. Test samples were injected twice.
HPLC separation was operated with a mixture of water and acetonitrile containing 0.1% of formic acid and the reversed phase mode was selected. The injected volume of sample was 20 μl and the “full loop” mode was applied. The temperature of the analytical column was kept at 30° C.
CLF and its IS were separated on an Acclaim 120 C18 column (5 μm, 2.1×100 mm, Dionex) by elution with a linear gradient of acetonitrile in water as described in Table 6.
An ion trap mass spectrometer equipped with an ESI interface was operated in the positive ionization mode. For each compound, the most abundant ion formed in MS was selected for MS/MS fragmentations. In order to increase the sensitivity and the specificity of the method, the MRM mode was selected. The most specific daughter ions formed in MS/MS were used for quantification.

[4] = 12 day storage at 2-8° C., pool1, Expected 125 ng/ml
[5] = 12 day storage at 2-8° C., pool2, Expected 31.25 ng/ml
[6] = 12 day storage at 2-8° C., pool3, Expected 500 ng/ml
[7] = 12 day storage at 2-8° C., sample 5876, Expected 1000 ng/ml
[8] = 12 day storage at 2-8° C., sample 5881, Expected 1000 ng/ml
[9] = 12 day storage at 2-8° C., sample 5883, Expected 500 ng/ml
[10] = 12 day storage at 2-8° C., sample 5883, Expected 1000 ng/ml
[11] = 12 day storage at 2-8° C., sample 5884, Expected 62.5 ng/ml
[12] = 12 day storage at 2-8° C., sample 5884, Expected 125 ng/ml
[13] = 12 day storage at 2-8° C., sample 5884, Expected 250 ng/ml
[14] = 12 day storage at 2-8° C., sample 5884, Expected 500 ng/ml
[15] = 12 day storage at 2-8° C., sample 5885, Expected 62.5 ng/ml
[16] = 12 day storage at 2-8° C., sample 5885, Expected 125 ng/ml
[17] = 12 day storage at 2-8° C., sample 5885, Expected 250 ng/ml
[18] = 12 day storage at 2-8° C., sample 5885, Expected 500 ng/ml
[19] = 12 day storage at 2-8° C., sample 5885, Expected 1000 ng/ml

CC(CCC(=O)NC(CCCCNC(=S)Nc1ccc(-c2c3ccc(=O)cc-3oc3cc(O)ccc23)c(C(=O)O)c1)C(=O)O)C1CCC2C3C(O)CC4CC(O)CCC4(C)C3CC(O)C12C [CLF, Cholyl-L-Lysyl-Fluorescein]
Difference, mean ([1]; 12 day storage at 2-8° C., mean of all samples): −27%
Difference [1, 4]: −39%
observed [1, 4]: 76 ng/mL
Difference [1, 5]: −14%
observed [1, 5]: 27 ng/mL
Difference [1, 6]: −27%
observed [1, 6]: 365 ng/mL
Difference [1, 7]: −24%
observed [1, 7]: 756 ng/mL
Difference [1, 8]: −18%
observed [1, 8]: 820 ng/mL
Difference [1, 9]: −25%
observed [1, 9]: 375 ng/mL
Difference [1, 10]: −10%
observed [1, 10]: 903 ng/mL
Difference [1, 11]: −29%
observed [1, 11]: 44 ng/mL
Difference [1, 12]: −36%
observed [1, 12]: 80 ng/mL
Difference [1, 13]: −39%
observed [1, 13]: 153 ng/mL
Difference [1, 14]: −32%
observed [1, 14]: 340 ng/mL
Difference [1, 15]: −27%
observed [1, 15]: 46 ng/mL
Difference [1, 16]: −33%
observed [1, 16]: 84 ng/mL
Difference [1, 17]: −29%
observed [1, 17]: 177 ng/mL
Difference [1, 18]: −24%
observed [1, 18]: 379 ng/mL
Difference [1, 19]: −20%
observed [1, 19]: 804 ng/mL
reduction in measured CLF (mean) ([1]; samples kept at 2-8 C. for 12 days): 27%) occurs when samples are kept
reduction in measured CLF (mean) ([1]; spiked serum samples kept at 2-8° C. for 12 days, vs expected): 27%
CLF immunoreactivity lost ([2]; exposed to light, after 48 hrs): long period, with up to 25% of CLF
% difference (light from dark) ([2]; expected 31.25 ng/ml): 0%
observed Light ([2]; expected 31.25 ng/ml): 37 ng/mL
observed dark ([2]; expected 31.25 ng/ml): 37 ng/mL
% difference (light from dark) ([2]; expected 125 ng/ml): −25%
observed Light ([2]; expected 125 ng/ml): 107 ng/mL
observed dark ([2]; expected 125 ng/ml): 143 ng/mL
% difference (light from dark) ([2]; expected 500 ng/ml): −15%
observed Light ([2]; expected 500 ng/ml): 423 ng/mL
observed dark ([2]; expected 500 ng/ml): 495 ng/mL
CLF immunoreactivity lost on exposure to light ([2]; spiked serum, 48 hrs, room temperature, fluorescent bulb vs dark): up to 25%
CLF remaining ([3]; 0.0 days): 100.0%
CLF concentration ([3]; 0.0 days): 101.2 ± 5.8 ng/mL
CLF concentration ([3]; 1.0 days): 105.5 ± 2.5 ng/mL
CLF concentration ([3]; 3.0 days): 104.7 ± 6.9 ng/mL
CLF concentration ([3]; 28.0 days): 96.2 ± 1.4 ng/mL
CLF remaining ([3]; 1.0 days): 104.3%
CLF remaining ([3]; 3.0 days): 103.5%
CLF remaining ([3]; 28.0 days (4 weeks)): 95.0%
plasmatic concentrations measured ([3]; plasma spiked with 100 ng/ml, stored at −70° C., 0-4 weeks): 96.2 to 105.5 ng/mL
CLF stability in plasma on storage ([3]; up to 4 weeks at −70° C.): stable
time over which CLF stability in human plasma was confirmed ([3]; −70° C.): at least 4 weeks
